Here are results for 2 compounds from PMC10766854 (Frontiers in Pharmacology, 2023).

Series [1] can be described thus: Safety and tolerability assessment (adverse events) in the crossover trial. Type of series: in vivo, human. As to conditions: single s.c. 0.6 mg. On the procedure: Subjects receiving the study drug were included in the safety assessment. The safety assessment included physical examination, vital signs (pre-dose and 1, 3, 12, 24, 48, and 72 h after administration of the study drug in the first and second cycles), laboratory tests, 12-lead electrocardiograms (pre-dose and 3, 24, 48, and 72 h after administration of the study drug in the first and second cycles), and blood glucose monitoring. Laboratory safety assessments were completed at the laboratory of Zhongshan Hospital, Fudan University, including routine blood, blood biochemistry, thyroid function, coagulation function, and urine routine tests. All adverse reactions were coded using MedDRA 21.0 terminology and categorized and analyzed according to SOC/PT.

Series [2] can be described thus: Stability of analyte solutions and prepared samples, LC-MS/MS method validation. Type of series: physicochemical. As to conditions: room temperature. On the procedure:
Plasma concentrations of liraglutide were analyzed using a validated, sensitive, and specific liquid chromatography–tandem mass spectrometry (LC-MS/MS) method developed by Shanghai WuXi AppTec New Drug Development Co. (Shanghai, China). Waters ACQUITY UPLC (Waters Corporation, United States) and AB Triple Quad 6500+ Mass Spectrometer (SCIEX Technologies, United States) combined with an electrospray ionization source were used for LC-MS/MS analysis. The internal standard of liraglutide was developed in-house. The chromatographic separation was performed on a C18 column (Waters) at 60°C with a flow rate of 600 μL/min. […] The linear range, limit of quantification, accuracy, precision, recovery, selectivity, and stability of the method were verified. The linear range of the analytical method for the determination of liraglutide in plasma was 1.00–250 ng/mL, and the lower limit of quantification (LLOQ) was 1.00 ng/mL. […] The analyte recoveries were determined using three gradients, high, medium, and low, with mean values of 48.0%, 47.6%, and 57.8%, respectively, corresponding to CVs of less than 8% and 57.3 for IS, corresponding to a CV of 5.1%. […] During analysis, plasma concentrations of liraglutide below the limit of quantification were listed as zero and missing values in PK samples before and after Tmax, respectively. […]

For series [3] the following is noted: ref US Food and Drug Administration, 2017, cited from earlier work. On the procedure:
In five double-blind clinical trials of 26 weeks or longer, the incidence of gastrointestinal adverse reactions in patients was reported to be 41% in the liraglutide treatment group and was dose-related ([US Food and Drug Administration, 2017]). This is consistent with the pharmacodynamic profile of GLP-1R agonist-related drugs. […] In five clinical trials of 26 weeks or longer ([US Food and Drug Administration, 2017]), approximately 50%–70% of Victoza-treated patients were tested for anti-liraglutide antibodies at the end of treatment. Approximately 8.6% of the liraglutide-treated group were detected with low-titer (no serum concentration dilution required) anti-liraglutide antibodies. When comparing all antibody-positive and all antibody-negative patients, antibody formation wa ...

Series [4] can be described thus: Pharmacokinetics and bioequivalence after a single subcutaneous injection, plasma liraglutide by LC-MS/MS. Type of series: in vivo, human. As to conditions: single s.c. 0.6 mg, N = 36. On the procedure: This trial was designed as a randomized, open, two-cycle, self-crossover trial. Screening was performed within 28 days prior to dosing, and eligible subjects were admitted to the Phase I Clinical Trial Ward in the afternoon of the first day prior to dosing and fasted for 10 h overnight after dinner. […] A total of 18 subjects received the test formulation in the first cycle, and the other 18 subjects received the reference formulation for administration and were crossover-administered for the second cycle of the study after a 14-day washout period. Drinking water was restricted for 1 h before and 1 h after dosing, water was drunk as needed at all other times, and a standardized nutritious meal was uniformly provided at least 4 h after dosing. The subjects were discharged from the hospital on the third day after dosing. Follow-up examinations were performed 72 h after the last dose of the second cycle.
After collection, the tubes were inverted six times, centrifuged at 4°C, 1,460 g for 10 min, and the plasma was aliquoted and placed it the numbered cryopreservation tube. Plasma samples were stored in a refrigerator at −80°C before analysis.
Waters ACQUITY UPLC (Waters Corporation, United States) and AB Triple Quad 6500+ Mass Spectrometer (SCIEX Technologies, United States) combined with an electrospray ionization source were used for LC-MS/MS analysis. […] The chromatographic separation was performed on a C18 column (Waters) at 60°C with a flow rate of 600 μL/min. The mobile phase A was 0.025% formic acid aqueous solution (v/v), and the mobile phase B was 0.025% formic acid acetonitrile aqueous solution (v/v). The linear range, limit of quantification, accuracy, precision, recovery, selectivity, and stability of the method were verified. […] In the concentration data listings, all missing data are indicated as “-” or NA (not applicable).
The pharmacokinetic parameters, including Tmax, Cmax, AUC0-t, AUC0-∞, t1/2z, AUC_%Extrap, Vz/F, and CLz/F, were calculated using the non-compartmental model of WinNonlin 7.0. Descriptive statistical analysis was performed on PK parameters, and the arithmetic mean, standard deviation, coefficient of variation, maximum, minimum, and geometric mean of each parameter were calculated. If AUC_%Extrap >20%, the subject’s AUC0-∞, t1/2z, Vz/F, and CLz/F were not to be used for descriptive statistical analysis.
Based on the blood concentration data, SAS 9.4 was used for statistical analysis. Cmax, AUC0-t, AUC0-∞, t1/2z, CLz/F, and Vz/F were logarithmically transformed and then analyzed using variance analysis (ANOVA). […] Two one-sided tests were performed for each parameter, and 90% CI of the geometric mean ratio (GMR) of the pharmacokinetic parameters (T/R) was calculated.

The conditions of series [5]: ref US Food and Drug Administration, 2017, cited from earlier work. On the procedure:
The lower dose on the steeper portion of the exposure–effect curve in healthy subjects was chosen to assess the difference between the subject drug and the reference drug ([CDER, 2014]), and therefore, 0.6 mg was selected as the dose to be administered in this comparative trial.
This is another data set of the same source.

A further series concerns dipeptidyl dipeptidase-4. As to conditions: endogenous GLP-1, easily degraded by dipeptidyl dipeptidase-4; ref Drucker, 2003; cited from earlier work. The text has this:
GLP-1 is an endogenous incretin hormone secreted primarily by intestinal L-cells ([Drucker, 2006]; [Baggio and Drucker, 2007]; [Müller et al., 2019]), which is involved in the regulation of glucose homeostasis through GLP-1R, a G-protein-coupled receptor, in a variety of ways, mainly including stimulation of insulin secretion in a glucose-dependent manner, inhibition of glucagon secretion, reduction of appetite, slowing down of gastric emptying ([Drucker and Nauck, 2006]; [Hare et al., 2010]), enhancement of insulin sensitivity ([Fernández-Millán et al., 2016]; [Capuani et al., 2018]; [Jiang e ...

Setting [6] is: healthy Chinese subjects, N = 36.
Setting [7] is: single dose 0.6 mg subcutaneously.

As to `CCCCCCCCCCCCCCCC(=O)N[C@@H](CCC(=O)NCCCC[C@H](NC(=O)[C@H](C)NC(=O)[C@H](C)NC(=O)[C@H](CCC(N)=O)NC(=O)CNC(=O)[C@H](CCC(=O)O)NC(=O)[C@H](CC(C)C)NC(=O)[C@H](Cc1ccc(O)cc1)NC(=O)[C@H](CO)NC(=O)[C@H](CO)NC(=O)[C@@H](NC(=O)[C@H](CC(=O)O)NC(=O)[C@H](CO)NC(=O)[C@@H](NC(=O)[C@H](Cc1ccccc1)NC(=O)[C@@H](NC(=O)CNC(=O)[C@H](CCC(=O)O)NC(=O)[C@H](C)NC(=O)[C@@H](N)Cc1cnc[nH]1)[C@@H](C)O)[C@@H](C)O)C(C)C)C(=O)N[C@@H](CCC(=O)O)C(=O)N[C@@H](Cc1ccccc1)C(=O)N[C@H](C(=O)N[C@@H](C)C(=O)N[C@@H](Cc1c[nH]c2ccccc12)C(=O)N[C@@H](CC(C)C)C(=O)N[C@H](C(=O)N[C@@H](CCCNC(=N)N)C(=O)NCC(=O)N[C@@H](CCCNC(=N)N)C(=O)NCC(=O)O)C(C)C)[C@@H](C)CC)C(=O)O` [Liraglutide, liraglutide], in series [1] (healthy Chinese subjects), the “Tolerability (in words)” value is “well tolerated”. Besides, in series [1] (setting [6]), the “AEs leading to exit, Instance” value was 0; the “AEs of grade 1 and above, Instance” value is 0; the “Blurred right vision, Instance” value was 0; the “Elevated blood glucose, Instance” value is given as 0. In series [1] (setting [6]), the “Elevated free thyroxine, Instance” value is given as 1; the “Elevated hypersensitivity thyroid-stimulating hormone, Instance” value worked out at 1; the “Hyperuricemia, Instance” value amounted to 1; the “Increased alanine aminotransferase, Instance” value came out at 0. In series [1] (setting [6]), the “Increased urine leukocytes, Instance” value amounted to 0; the “Leukocyte increase, Instance” value worked out at 1; the “Serious AEs, Instance” value is 0. Besides, in series [1] (proportion of subjects, N = 36), the “AEs leading to exit, Number of cases (n%)” value was found to be 0%; the “AEs of grade 1 and above, Number of cases (n%)” value is on record as 0%; the “Blurred right vision, Number of cases (n%)” value was 0%; the “Elevated blood glucose, Number of cases (n%)” value was determined as 0%. In series [1] (proportion of subjects, N = 36), the “Elevated free thyroxine, Number of cases (n%)” value is given as 2.78%; the “Elevated hypersensitivity thyroid-stimulating hormone, Number of cases (n%)” value was 2.78%; the “Hyperuricemia, Number of cases (n%)” value worked out at 2.78%; the “Increased alanine aminotransferase, Number of cases (n%)” value is 0%. Also, in series [1] (proportion of subjects, N = 36), the “Increased urine leukocytes, Number of cases (n%)” value stood at 0%; the “Leukocyte increase, Number of cases (n%)” value turned out to be 2.78%; the “Serious AEs, Number of cases (n%)” value amounted to 0%; the “Total AEs, Number of cases (n%)” value came to 8.33%. In addition, in series [1] (36 subjects per group), the “Number of adverse reactions / AEs” value is “four”, the “Number of possible related adverse reactions (times)” value was “three”, the “Subjects with adverse reactions (proportion)” value is recorded as 8.33% and the “Subjects with adverse reactions / AEs (number of subjects)” value is on record as “Three”. Moreover, in series [1] (36 subjects per group), the “Subjects with possible related adverse reactions (number of subjects)” value is listed as “two” and the “Subjects with possible related adverse reactions (proportion)” value is given as 5.56%. Also, the “Short-term stability (ULOQ) of the working solution” value in series [2] (aqueous mixture of formic acid and acetonitrile) is recorded as 146.9 h. Besides, the “Stability of the biological samples after preparation” value in series [2] (prepared plasma samples) amounted to 21.5 h. Also, the “Proportion of treated group with low-titer anti-liraglutide antibodies” value in series [3] (five clinical trials of 26 weeks or longer, end of treatment) is recorded as “Approximately 8.6%”. Also, in series [3] (patients, five double-blind clinical trials of 26 weeks or longer, dose-related), the “Incidence of gastrointestinal adverse reactions” value was 41%. Further, the Vd/F in series [4] (human, in vivo, sc, healthy Chinese subjects, plasma LC-MS/MS, non-compartmental, mean ± SD (%CV), read-out: Vz/F (apparent volume of distribution)) was 8.34 L. In addition, the “Geometric mean ratio (T/R) of Cmax” value in series [4] (test liraglutide injection versus Victoza, equivalence interval 80.00%–125.00%, 90% CI 99.54–108.10) stood at 103.73%. The “Geometric mean ratio (T/R) of AUC0-t” value in series [4] (test liraglutide injection versus Victoza, equivalence interval 80.00%–125.00%, 90% CI 99.85–106.26) worked out at 103.01%. Further, in series [4] (test liraglutide injection versus Victoza, equivalence interval 80.00%–125.00%, 90% CI 100.04–106.11), the “Geometric mean ratio (T/R) of AUC0-∞” value is listed as 103.03%. Moreover, in series [5] (setting [7]), the “Mean apparent volume of distribution” value is “approximately 13 L”, the “Mean peak (Cmax)” value is 35 ng/mL, the “Time to maximum concentration after dosing” value is 8 to 12 h and the “Total exposure (AUC)” value was 960 ng·h/mL. In addition, the Mean apparent clearance entry in series [5] (single dose, subcutaneous administration) is listed as “approximately 1.2 L/h”.

In the case of “GLP-1: Endogenous incretin hormone secreted primarily by intestinal L-cells”, in the series on dipeptidyl dipeptidase-4, the Effective half-life result is listed as “only a few minutes”.
